Assay: HILIC, Waters ACQUITY UPLC BEH Amide, 100 × 2.1 mm, 1.7 µm; A: water + 0.125% formic acid + 10 mM ammonium formate; B: 5% water + 95% acetonitrile + 0.125% formic acid + 10 mM ammonium formate; gradient (min/%B) 0/100 2/100 7.7/70 9.5/40 10.25/30 12.75/100 17/100
Conditions: stereoisomer not certain

| LC retention time [min] | Structure (SMILES) |
| --- | --- |
| 3.18 | O=C(O)c1cc(O)ccc1O [Gentisinic acid] |
| 8.52 | NC(CCC(=O)NC(Cc1ccc(O)cc1)C(=O)O)C(=O)O (stereo not given) [gamma-Glutamyltyrosine] |
| 7.67 | CC(=O)NC(CO)C(=O)O (stereo not given) [N-Acetylserine] |
| 2.02 | O=C(O)CC1C(=O)Nc2ccccc21 (stereo not given) [(2-oxo-2,3-dihydro-1H-indol-3-yl)acetic acid] |
| 1.25 | CC12CCC(=O)C=C1CCC1C2C(O)CC2(C)C(C(=O)CO)CCC12 (stereo not given) [Corticosterone] |
| 4.53 | COC(=O)C1=COC(OC2OC(CO)C(O)C(O)C2O)C2C(CO)=CCC12 (stereo not given) [Geniposide] |
| 8.16 | CC(=O)NC(CCCN=C(N)N)C(=O)O [N-.alpha.-Acetyl-L-arginine] |
| 3.01 | CCCCCCCCCCCCCCCCC(=O)O [Heptadecanoic acid] |
| 7.11 | CN1CCCC1C(=O)O (stereo not given) [N-Methylproline] |
| 1.22 | Nc1ccccc1O [2-Aminophenol] |
| 6.15 | O=C(O)c1cc(=O)c2ccccc2[nH]1 [Kynurenic acid] |
| 8.73 | NC(CO)C(=O)O (stereo not given) [Serine] |
| 6.6 | NCC1CCC(C(=O)O)CC1 (stereo not given) [4-Aminomethylcyclohexanecarboxylic acid] |
| 1.56 | OCC(O)C(O)CO (stereo not given) [Threitol] |
| 1.73 | O=c1ccn(C2CCC(CO)O2)c(=O)[nH]1 (stereo not given) [2,3-Dideoxyuridine] |
| 3.6 | CC(C)C(=O)NCC(=O)O [N-Isobutyrylglycine] |
| 7.1 | C[N+]1(C)CCCC1C(=O)O (stereo not given) [Stachydrine] |
| 8.86 | CC(C)CC(N)C(=O)NC(CCCN=C(N)N)C(=O)O (stereo not given) [Leu-Arg] |
| 0.92 | OCC1OCC(O)C(O)C1O (stereo not given) [1,5-Anhydrosorbitol] |
| 7.35 | Nc1c(O)cccc1C(=O)CC(N)C(=O)O (stereo not given) [3-Hydroxykynurenine] |
| 2.29 | CC(=O)NC(CC(C)C)C(=O)O (stereo not given) [N-Acetylleucine] |
| 2.95 | CC(C)=CC(=O)NCC(=O)O [3-Methylcrotonylglycine] |
| 8.85 | Nc1ncnc2c1ncn2C1OC(CSCCC(N)C(=O)O)C(O)C1O (stereo not given) [S-Adenosyl-homocysteine] |
| 1.11 | O=C(O)CCc1nc(-c2ccccc2)c(-c2ccccc2)o1 [Oxaprozin] |
| 1.8 | CCC(C)C(=O)OC1CC(O)C=C2C=CC(C)C(CCC(O)CC(O)CC(=O)O)C21 (stereo not given) [Pravastatin] |
| 7.98 | NC(C(=O)NC1C(=O)N2C(C(=O)O)=C(CSc3cn[nH]n3)CSC12)c1ccc(O)cc1 (stereo not given) [Cefatrizine] |
| 9.73 | O=C(O)CP(=O)(O)O [Phosphonoacetic acid] |

| LC retention time [min] | Structure (SMILES) |
| --- | --- |
| 7.63 | CC1(C)CC1C(=O)NC(=CCCCCSCC(N)C(=O)O)C(=O)O (stereo not given) [Cilastatin] |
| 0.97 | CC=CC(=O)N(CC)c1ccccc1C [Crotamiton] |
| 8.6 | O=C(O)C1CC(O)CN1C(=O)C1CCCN1 (stereo not given) [Proline-hydroxyproline] |
| 1.15 | O=C(O)c1ccccc1C(=O)O [Phthalic acid] |
| 6.68 | O=C(C=Cc1ccc(O)c(O)c1)OC1CC(O)(C(=O)O)CC(O)C1O (stereo not given) [Chlorogenic acid] |
| 4.85 | O=C(O)CCNC(=O)c1ccc(N=Nc2ccc(O)c(C(=O)O)c2)cc1 [Balsalazide] |
| 6.4 | NCCc1ccc(O)c(O)c1 [Dopamine] |
| 2.66 | Cc1ncc(CO)c(C(=O)O)c1O [4-Pyridoxic acid] |
| 7.66 | CC(C)C(NC(=O)C(N)CCC(=O)O)C(=O)NC(Cc1ccccc1)C(=O)O (stereo not drawn) [Glu-Val-Phe] |
| 5.02 | COC1C(O)C(CO)OC1n1ccc(N)nc1=O (stereo not given) [2'-O-Methylcytidine] |
| 9.65 | NC(CO)C(=O)NC(CCC(=O)O)C(=O)O (stereo not given) [Ser-Glu] |
| 1.41 | COc1cc(C=CC(=O)O)cc(OC)c1O [Sinapic acid] |
| 1.44 | O=C1OC(C(O)CO)C(O)=C1O (stereo not given) [Ascorbic acid] |
| 5.29 | COC(=O)CN [Methylglycinate] |
| 1.02 | COC(=O)C1=C(C)NC(C)=C(C(=O)OC)C1c1ccccc1[N+](=O)[O-] [Nifedipine] |
| 2.49 | CCCN1CCCCC1C(=O)Nc1c(C)cccc1C (stereo not given) [Ropivacaine] |
| 1.27 | NC(=O)c1ccccc1 [Benzamide] |
| 7.06 | N[C@H]1[C@@H](OP(=O)(O)O)O[C@H](CO)[C@H](O)[C@@H]1O [alpha-Galactosamine-1-phosphate] |
| 4.89 | CCCC(N)C(=O)O (stereo not given) [Norvaline] |
| 2.48 | O=c1ccn(C2OC(CO)C(O)C2O)c(=S)[nH]1 (stereo not given) [2-Thiouridine] |
| 10.2 | CCCC(=O)O [Butanoic acid] |
| 6.92 | O=C(O)C1CSCN1 (stereo not given) [Thiazolidine-4-carboxylic acid] |
| 9.72 | NC(Cc1ccc(OP(=O)(O)O)cc1)C(=O)O (stereo not given) [Phosphotyrosine] |
| 0.96 | CC(C)c1ccc2c(c1)c(SC(C)(C)C)c(CC(C)(C)C(=O)O)n2Cc1ccc(Cl)cc1 [MK-886] |
| 3.56 | CNc1ncnc2c1ncn2C1OC(CO)C(O)C1O (stereo not given) [6-Methyladenosine] |
| 9.36 | CNCCCCC(N)C(=O)O (stereo not given) [N-Methyllysine] |

Further lines, the compound ahead of its results:

| Structure (SMILES) | LC retention time [min] |
| --- | --- |
| NC(Cc1ccc(O)cc1)C(=O)NC(Cc1ccc(O)cc1)C(=O)NC(Cc1ccc(O)cc1)C(=O)O (stereo not drawn) [Tyr-Tyr-Tyr] | 7.09 |
| CN1CCN(CCCN2c3ccccc3Sc3ccc(C(F)(F)F)cc32)CC1 [Trifluoperazine] | 2.15 |
| CC1CCCC(O)CCCCCc2cc(O)cc(O)c2C(=O)O1 (stereo not given) [Zeranol] | 1.11 |
| CCNC(C)Cc1cccc(C(F)(F)F)c1 (stereo not given) [Fenfluramine] | 2.33 |
| CCC1(O)CC2CN(CCc3c([nH]c4ccccc34)C(C(=O)OC)(c3cc4c(cc3OC)N(C=O)C3C(O)(C(=O)OC)C(OC(C)=O)C5(CC)C=CCN6CCC43C65)C2)C1 (stereo not given) [Vincristine] | 3.7 |
| COc1cc2nc(N3CCN(C(=O)c4ccco4)CC3)nc(N)c2cc1OC [Prazosin] | 3.75 |
| CC(=O)N1C(=O)C(=O)c2ccccc21 [Acetylisatin] | 2.4 |
| CC12CCC(=O)C=C1CCC1C2CCC2(C)C(O)CCC12 (stereo not given) [Testosterone] | 1.05 |
| Cn1c(=O)[nH]c2ncn(C)c2c1=O [1,7-Dimethylxanthine] | 1.69 |
| CCCCN1CCCC1CNC(=O)c1cc(C#N)c2ccccc2c1OC (stereo not given) [Nafadotride] | 2.05 |
| COc1cc(N)c(Cl)cc1C(=O)NC1CCN(CCCOc2ccc(F)cc2)CC1OC (stereo not given) [Cisapride] | 2.28 |
| CN1C2CCC1CC(OC(=O)c1c[nH]c3ccccc13)C2 (stereo not given) [Tropisetron] | 3.81 |
| CC1=C2C3OC(=O)C(C)C3CCC2(C)C=CC1=O (stereo not drawn) [alpha-Santonin] | 1.07 |
| COc1cc(C)nc(-n2nc(C)cc2OC)n1 [Mepirizole] | 1.03 |
| CN(CCOc1ccc(NS(C)(=O)=O)cc1)CCc1ccc(NS(C)(=O)=O)cc1 [Dofetilide] | 3.38 |
| CCN(CC)CCOC(=O)C(O)(c1ccccc1)c1ccccc1 [Benactyzine] | 2.16 |
| CCCCCCCCC=CCCCCCCCCCCCC(N)=O [Erucamide] | 1.06 |
| CN(C)CCC=C1c2ccccc2COc2ccccc21 [Doxepin] | 2.26 |
| COc1ccc(-c2cc(=O)c3c(OC)c(OC)c(OC)c(OC)c3o2)cc1OC [Nobiletin] | 1 |

| Structure (SMILES) | LC retention time [min] |
| --- | --- |
| Cc1[nH]c(=O)c(C#N)cc1-c1ccncc1 [Milrinone] | 1.6 |
| CNCCCC12CCC(c3ccccc31)c1ccccc12 [Maprotiline] | 2.66 |
| CN=C1CN(O)C(c2ccccc2)=c2cc(Cl)ccc2=N1 [Chlordiazepoxide] | 1.35 |
| Oc1ccc(C=Cc2cc(O)cc(O)c2)cc1 [Resveratrol] | 1.41 |
| CCN1CCN(c2cc3c(cc2F)c(=O)c(C(=O)O)cn3C2CC2)CC1 [Enrofloxacin] | 3.31 |
| COc1ccc(-c2coc3cc(O)ccc3c2=O)cc1 [Formononetine] | 1.18 |
| CC(C)NCC(O)COc1ccc(CCOCC2CC2)cc1 (stereo not given) [Betaxolol] | 3.05 |
| COC(=O)C1C(O)CC2CCC1N2C (stereo not given) [Ecgonine methylester] | 4.18 |
| COc1ccc(Cc2nccc3cc(OC)c(OC)cc23)cc1OC [Papaverine] | 1.54 |
| OCCN1CCN(CCCN2c3ccccc3Sc3ccc(C(F)(F)F)cc32)CC1 [Fluphenazine] | 2.74 |
| CN(C)CCOC(C)(c1ccccc1)c1ccccn1 (stereo not given) [Doxylamine] | 2.45 |
| O=C1c2c(O)cc(O)cc2OC(c2ccc(O)c(O)c2)C1O (stereo not given) [Taxifolin] | 1.78 |
| COc1nc(C)nc(Cl)c1NC1=NCCN1 [Moxonidine] | 3.28 |
| Nc1nc2ccc(OC(F)(F)F)cc2s1 [Riluzole] | 1.03 |
| COc1cc(C)c(Cc2cnc(N)nc2N)cc1OC [Ormetroprim] | 4.19 |
| CCC1OC(=O)C(C)C(OC2CC(C)(OC)C(O)C(C)O2)C(C)C(OC2OC(C)CC(N(C)C)C2O)C(C)(OC)CC(C)C(=O)C(C)C(O)C1(C)O (stereo not given) [Clarithromycin] | 3 |
| COC1C(O)CC(=O)OC(C)CC=CC=CC(O)C(C)CC(CC=O)C1OC1OC(C)C(OC2CC(C)(O)C(OC(=O)CC(C)C)C(C)O2)C(N(C)C)C1O (stereo not given) [Kitasamycin] | 2.04 |
| COc1ccccc1OCC(O)CN1CCN(CC(=O)Nc2c(C)cccc2C)CC1 (stereo not given) [Ranolazine] | 2.79 |
